Among the data in article PMC6849638 (2019) are KD values, retold here.

The structures appear in SMILES notation.

Holding throughout (test): luminescence titration
Details in all cases: Na+ 100 mM; 20 mM Tris-HCl, pH 7.5, 298 K; apparent

Experiment [1] relates to A2T2 (DNA, hairpin) GGCGAATTCAGCTTTTTGCTGAATTCGCC
The test system of experiment [2] is A2T3 (DNA, hairpin) GGCGAATTTCGCTTTTTGCGAAATTCGCC
Experiment [3] has as its system A3T3 (DNA, hairpin) GGCAAATTTCAGTTTTTCTGAAATTTGCC
Experiment [4] has as its system G2C3 (DNA, hairpin) GGCAGGCCCAGCTTTTTGCTGGGCCTGCC

On to `N=C(N)c1ccc(NCc2ccnc(-c3cc(CNc4ccc(C(=N)N)cc4)ccn3)c2)cc1.[Ir+3].[c-]1ccccc1-c1ccccn1.[c-]1ccccc1-c1ccccn1` [Λ-4Ir], for which the KD in experiment [1] was 1.15 (0.13) μM; in experiment [2] it was 0.62 (0.04) μM; in experiment [3], 0.47 (0.03) μM; in experiment [4] it was 0.70 (0.05) μM.

In the case of `N=C(N)c1ccc(NCc2ccnc(-c3cc(CNc4ccc(C(=N)N)cc4)ccn3)c2)cc1.[Ir+3].[c-]1ccccc1-c1ccccn1.[c-]1ccccc1-c1ccccn1` [Δ-4Ir], the KD in experiment [1] was 0.27 (0.09) μM; in experiment [2], 0.49 (0.03) μM; in experiment [3] it was 1.01 (0.12) μM; in experiment [4] it was 1.44 (0.09) μM.
